From paper PMC10688702, “The indole motif is essential for the antitrypanosomal activity of N^5-substituted paullones” (PLOS ONE, 2023)
Where a name gives a salt, the structure may show the parent alone.

Key:
[1] = test system: L. infantum amastigotes (intracellular, in J774.A1 macrophages); assay: Viability assay for L. infantum amastigotes; type: cell-based; details: Leishmania infantum, J774.A1, 24 h, read-out: L. infantum amastigote viability [% at 20 μM]
Method: Viability assay for L. infantum amastigotes. L. infantum promastigotes from the reference strain MHOM/MA/67/ITMAP263, stably transfected with a vector encoding a red-shifted luciferase gene (RE9HLUC; Branchini et al.; Benítez et al.) were grown in fresh complete RPMI medium (RPMI basic medium containing 25 mM HEPES, 10% v/v iFBS, 100 U/mL penicillin, 100 μg/mL streptomycin and 15 μg/mL hygromycin B) at 28°C in sealed culture flasks. Metacyclic promastigotes were obtained by a negative selection procedure using peanut agglutinin and used to infect murine macrophages (cell line J774.A1) at a 1:10 ratio for macrophages (5×10^6 cells): parasites (5×10^7 cells). 200 μL of this suspension was added per well to a 96-well culture microplate, which was then incubated at 37°C for 24 h in a 5% CO2/95% air atmosphere incubator. […] The culture microplate was incubated in the CO2 incubator for additional 24 h. Next, the supernatant was removed and the microplate wells were washed with pre-warmed PBS (200 μL). […] All conditions were tested in triplicates and the percentage amastigote viability was calculated as described for infective T. b. brucei, with errors expressed as one SD, estimated as σ^n-1.
A macrophage cell density correction factor based on the incorporation of propidium iodide was calculated and applied to normalise amastigote viability related to host cell density in the well. For a detailed explanation of the protocol, see Benítez et al..

[2] = target: trypanothione synthetase of L. infantum (LiTryS) (Leishmania infantum, UniProt A4I2Z3); assay: TryS activity screening assay on recombinant LiTryS; type: biochemical; details: for activity at 30 µM: read-out: LiTryS activity [% at 30 μM]; for LiTryS activity [% at 30 μM]: recombinant TryS, % activity at 30 μM compound, errors 2 SD
Method: (§1) TryS from different trypanosomatids was produced in recombinant form with an N-terminal His-tag. The constructs pET-15b TbTryS and pET-28c(+)LiTryS were used to express TryS of T. b. brucei 427 (MITat1.4, GenBank accession protein id CAC87573.1), and L. infantum JPCM5 (GenBank accession protein id CAM69145.1). E. coli strain BL21 (DE3) served as the expression host. For TbTryS, the cells were cultured in a medium based in Terrific Broth and induction with isopropyl 1-thio-β-D-galactopyranoside (IPTG), while for LiTryS, the cells were cultured in ZYM-5052 auto-induction medium. For a detailed description of the expression, see Benítez et al.. The purification was performed by immobilised metal affinity chromatography in a HisTrap Fast Flow column (GE Healthcare) followed by size exclusion chromatography. […] The fractions containing recombinant TryS with ≥95% purity were pooled and concentrated to >10 mg protein/mL using a 10 kDa cut-off Amicon filter (Millipore, Billerica, CA). Glycerol was added at a final concentration of 40% (v/v). The samples were stored at -80°C. Enzyme purity and activity were assessed by SDS-PAGE (12%) under reducing conditions and by the end-point TryS assay (see TryS activity screening assay), respectively. Protein concentration was determined using the bicinchoninic acid assay with bovine serum albumin as standard. The protocols yielded 25–30 mg TbTryS or LiTryS per litre of culture medium and homogeneous specific activity.
(§2) For all TryS, ATP was used at 150 μM because of a high background signal at higher concentrations and Spd fixed at 2 mM, in agreement with the intracellular levels calculated from data reported in the literature for trypanosomatids. GSH was adjusted to 0.05 and 0.25 mM for TbTryS and LiTryS, respectively, to avoid substrate inhibition or to approach physiological concentrations. […] Microtiter plate wells were loaded with 5 μL of the test compound, DMSO (reaction control) or a TryS specific inhibitor (inhibition control) and 40 μL of MM solution. The reactions were then started by adding 5 μL of TryS (2 and 3*10^−5 μmol*min^-1*mL^-1 for LiTryS and TbTryS, respectively) and stopped after 15 min with 200 μL BIOMOL® GREEN reagent (Enzo Life Sciences). The compounds used as inhibition control were added at concentrations that inhibited 50% TryS activity: 30 μM and 150 nM MOL2008 for TbTryS and LiTryS, respectively. Blanks were prepared for each condition by adding 5 μL of screening reaction buffer instead of the enzyme. The TryS activity is calculated as follows: TrySactivity%=A650nmCi-A650nmCiB/A650nmE-A650nmEB*100%
(§3) A650 nm Ci is the mean absorbance at 650 nm for the reaction test with compound I (Ci), A650 nm CiB is the mean absorbance at 650 nm for the blank control with compound I (CiB), A650 nm E is the mean absorbance at 650 nm for the reaction control with DMSO (E) and A650 nm EB is the mean absorbance at 650 nm for the blank control with DMSO (EB). The errors were expressed as 2 standard deviations (SD), SD estimated as σ^n−1.

[3] = Kinetic aqueous solubility by nephelometry; type: physicochemical; details: phosphate-buffered saline, aqueous buffer, kinetic from dmso stock, PBS pH 7.4, 1% DMSO, 25°C, logS = decadic logarithm of molar solubility [M]
Method: Phosphate-buffered saline pH 7.4 was prepared according to the European Pharmacopeia 10.4 by dissolving 2.38 g sodium monohydrogen phosphate dodecahydrate, 0.19 g potassium dihydrogen phosphate and 8.0 g sodium chloride in demineralised water (to a total volume of 1000 mL). The pH was adjusted to a value of 7.4 with hydrochloric acid. The buffer was filtered through a 0.45 μm membrane filter (Chromafil® Xtra PES-45/25) before use.
The kinetic aqueous solubility was determined by nephelometry. The measurements were performed on the NEPHELOstar Plus, with accompanying software Omega 5.11 and MARS 3.20 (BMG LABTECH, Ortenberg, Germany). Generally, 2 dilution series of 1–2 weighed portions of each substance were measured. First, stock solutions of the compounds were prepared in DMSO. A series of dilutions in DMSO were prepared from one stock solution to obtain at least 3 concentrations below and 3 concentrations above the precipitation point in the measured series. The specific concentrations were usually measured as duplicates.
The 96-well plate (Corning UV transparent flat-bottom 96-well plate, Corning Incorporated, Kennenbunk, ME, USA) was inspected for contamination and scratches and measured without samples prior to the solubility measurement of the compounds. 198 μL of phosphate-buffered saline pH 7.4 was placed in a 96 well plate for each well to be measured. 2 μL of a DMSO solution was added and immediately mixed by moving the pipette plunger. This solution either contained no substance—and served as a blank for the measurement (3 wells)—or the respective DMSO dilution of the substance (2–4 wells). The concentration of the solvent DMSO in each measured solution was 1%. The concentration of the compound corresponds to a 1:100 dilution compared to the respective DMSO dilution. The well plate bottom was cleaned with a lint-free cloth and compressed air and inspected for impurities before measurement. After shaking at 500 rpm for 10 s (double orbital), the measurement was carried out in the nephelometer with the laser intensity set to 80% and beam focus of 2.5 mm at a temperature of 25°C.
The obtained measuring points, relative nephelometric units (RNU) per compound concentration, were used to model two straight lines: one straight line with constant low readings and slope → 0 characterises the concentration range where no precipitation has taken place yet; The other straight line has a steep slope and increase of the RNU per concentration and characterises the concentrations at which precipitation takes place in the respective sample vessels.
The evaluation was carried out by calculating the two straight lines and their point of intersection. Outliers and values in a saturation range for the kick-off curve (usually >800 kRNU) were not used to create the straight lines and are listed separately in the evaluation file. […] The x-value of the intersection of the two straight lines represents the kinetic solubility. The results of two dilution series are additionally indicated as range (in brackets). For measurements of 3 or more series, a mean value with standard deviation is provided. The logS value describes the decadic logarithm of the molar solubility: logS (molar solubility [M]).

[4] = test system: bloodstream form of T. b. brucei strain 427; assay: Viability assay for T. b. brucei (whole parasite, bioluminescence); type: cell-based; details: 24 h; for T. b. brucei (BS) proliferation [% at 10 μM]: 10 μM compound
Method: Viability assay for T. b. brucei. The bloodstream form of the monomorphic T. b. brucei strain 427, cell line 5141313, constitutively and stably expressing an ectopic copy of the Photinus pyralis red-shifted luciferase, was cultured in vitro with HMI-9 medium, supplemented with 10% fetal bovine serum, 10 U/mL penicillin (Gibco), 10 μg/mL streptomycin (Gibco), 0.2 μg/mL bleomycin (Jena Bioscience), 4 μg/mL G418 disulfate salt (Sigma-Aldrich) and 0.2 μg/mL puromycin (Invitrogen), inside a humidified incubator (Thermo Fisher Scientific) with controlled temperature (37°C) and CO2 (5%) in a 25 or 75 cm^2 vented-cap culture-flask. The anti-trypanosomal activity of compounds was evaluated in a 96-well culture plate containing 2.2 μL/well DMSO (negative control) or compounds dissolved in DMSO (1% final concentration), and 220 μL/well of a suspension of 1 × 10^5 parasites/mL. The plates were incubated at 37°C and 5% CO2 for 24 h. Next, each well was transferred to a 96-well black plate, and 20 μL of a solution containing d-luciferin (1.5 mg/mL in PBS glucose 1% w/v) and Triton X-100 (0.05% v/v) was added. Bioluminescence signal was measured in a LUMIstar OPTIMA Microplate luminometer using the following settings: 10 s shaking, 5 s/well acquisition, 0.2 s measurement delay, maximum gain, and 37°C. For the bioluminescence assay, parasite viability was calculated according to the following formula: parasiteviability%=BLcpd-BLblank/BLneg-BLblank*100%
BL refers to the mean of bioluminescence signal corresponding to the tested compound (cpd), the blank (blank, complete media containing 1% v/v DMSO), or the negative control (neg, parasites treated with 1% v/v DMSO). EC50 values were determined from concentration-response curves fitted to a four-parameter sigmoid equation using the GraphPad Prism software (version 6.0). All errors are expressed as one SD, estimated as σ^n-1. For a detailed explanation of the protocol, see Dibello et al..

[5] = test system: trypanothione synthetase of T. b. brucei (TbTryS); assay: TryS activity screening assay on recombinant TbTryS; type: biochemical; details: % activity at 30 μM compound, errors 2 SD
Method: as §1, §2, §3

trypanothione synthetase of L. infantum (LiTryS), sequence (A4I2Z3 entry or part of it): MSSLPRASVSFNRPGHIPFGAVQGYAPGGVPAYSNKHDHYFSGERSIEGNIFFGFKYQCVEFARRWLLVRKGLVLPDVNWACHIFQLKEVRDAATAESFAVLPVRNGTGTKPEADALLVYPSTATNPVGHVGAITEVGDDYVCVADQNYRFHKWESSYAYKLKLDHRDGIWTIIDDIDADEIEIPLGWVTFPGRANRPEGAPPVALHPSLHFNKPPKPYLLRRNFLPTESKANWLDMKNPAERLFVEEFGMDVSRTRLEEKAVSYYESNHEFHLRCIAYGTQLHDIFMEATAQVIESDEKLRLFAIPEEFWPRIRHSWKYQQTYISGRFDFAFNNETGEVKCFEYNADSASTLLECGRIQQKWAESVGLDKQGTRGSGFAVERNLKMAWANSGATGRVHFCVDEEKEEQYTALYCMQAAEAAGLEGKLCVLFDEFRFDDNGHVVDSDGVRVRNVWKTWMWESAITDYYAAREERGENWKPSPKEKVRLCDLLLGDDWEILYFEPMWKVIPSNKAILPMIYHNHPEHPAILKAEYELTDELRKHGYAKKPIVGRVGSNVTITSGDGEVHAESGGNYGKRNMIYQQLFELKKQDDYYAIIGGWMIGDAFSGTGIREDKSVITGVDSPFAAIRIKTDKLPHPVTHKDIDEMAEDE

Structure (SMILES) | viability at 20 µM [1] | activity at 30 µM [2] | solubility kinetic at 10 s [3] | T. b. brucei (BS) proliferation [% at 10 μM] [4] | EC50 ([4]; Trypanosoma brucei, read-out: T. b. brucei (BS) [EC50) | LiTryS activity [% at 30 μM] [2] | TbTryS activity [% at 30 μM] [5]
CON=C1CCC(=O)N(CC(=O)NCCN2CCNCC2)c2ccccc21 (mixture of isomers) [5d, (E/Z)-2-[5-(Methoxyimino)-2-oxo-2,3,4,5-tetrahydro-1H-benzo[b]azepin-1-yl]-N-[2-(piperazin-1-yl)ethyl]acetamide dihydrochloride] | 74.9 ± 11.2% | 97.5 ± 4.7% | > 0.001 M |  |  |  | 
Cl.O=C(CN1C(=O)CCCc2ccccc21)N1CCNCC1 [2q, 1-[2-Oxo-2-(piperazin-1-yl)ethyl]-1,3,4,5-tetrahydro-2H-benzo[b]azepin-2-one hydrochloride] |  | 113 ± 10.7% | > 0.00398 M |  |  |  | 
O=C(O)CN1C(=O)Cc2c([nH]c3ccc(I)cc23)-c2ccc(Cl)cc21 [9a, 2-(3-Chloro-9-iodo-6-oxo-7,12-dihydrobenzo[2,3]azepino[4,5-b]indol-5(6H)-yl)acetic acid] |  | 67.2 ± 3.9% |  | 24.2 ± 3.4% | 10.5 ± 1.3 µM | moderate inhibitory activity | 102.9 ± 6.7%
O=C(O)CN1C(=O)Cc2c([nH]c3ccc(Cl)cc23)-c2ccc(Cl)cc21 [9b, 2-(3,9-Dichloro-6-oxo-7,12-dihydrobenzo[2,3]azepino[4,5-b]indol-5(6H)-yl)acetic acid] |  | 90.2 ± 6.7% |  | 56.4 ± 3.8% |  |  | 104.0 ± 10.1%
O=C(O)CN1C(=O)Cc2c([nH]c3ccc(C(F)(F)F)cc23)-c2ccc(Cl)cc21 [9c, 2-(3-Chloro-6-oxo-9-trifluoromethyl-7,12-dihydrobenzo[2,3]azepino[4,5-b]indol-5(6H)-yl)acetic acid] |  | 62.4 ± 6.4% |  | 61.6 ± 10.2% |  | moderate inhibitory activity | 110.2 ± 11.5%
